Experiment [1] has as its target Human plasma kallikrein (Homo sapiens (Human), UniProt P03952). In words: Kallikrein Assay. Type of experiment: biochemical. Particulars: purified Human plasma kallikrein 0.5 nM, substrate Acetyl-K-P-R-AFC; read-out: P. KLK IC50. Here is the method:
The effectiveness of a compound of the present invention as an inhibitor of Kallikrein can be determined using a relevant purified serine protease, and an appropriate synthetic substrate. The rate of hydrolysis of the chromogenic or fluorogenic substrate by the relevant serine protease was measured both in the absence and presence of compounds of the present invention. Assays were conducted at room temperature or at 37° C. […] A decrease in the rate of fluorescence change in the presence of inhibitor is indicative of enzyme inhibition. Such methods are known to one skilled in the art. The results of this assay are expressed as the half-maximal inhibitory concentrations (IC50), or the inhibitory constant, Ki.
Kallikrein determinations were made in 50 mM HEPES buffer at pH 7.4 containing 150 mM NaCl, 5 mM CaCl2, and 0.1% PEG 8000 (polyethylene glycol; Fisher Scientific). Determinations were made using purified Human plasma kallikrein at a final concentration of 0.5 nM (Enzyme Research Laboratories) and the synthetic substrate, Acetyl-K-P-R-AFC (Sigma # C6608) at a concentration of […].
Times required to achieve equilibration between enzyme and inhibitor were determined in control experiments. The reactions were performed under linear progress curve conditions and fluorescence increase measured at 405 Ex/510 Em nm. […] IC50 was determined by inflection point from a four parameter logistic curve fit. Ki was calculated using the Cheng Prusoff equation, Ki=IC50/(1+([S]/Km)).

In experiment [2] the test system is Human plasma (intrinsic coagulation cascade). Put plainly: Activated Partial Thromboplastin Time (aPTT) Assay. Particulars: concentration that causes a 50% (1.5×) increase of clot time over vehicle. On the procedure:
Activated partial thromboplastin time (aPTT) is a clotting test that measures the intrinsic coagulation cascade. The test is performed in sodium citrated plasma. Human plasma is made by collecting blood from healthy donors of both genders into Na citrate tubes (Sarstedt coagulation 9NC/10 ml). Blood is centrifuged at 1500×g and the plasma is collected. aPTT is checked on each individual donor and those within the normal range (28-40 seconds) are pooled, aliquoted, and stored at −80 C. Test samples are prepared by spiking inhibitors or vehicle into plasma. These spiked samples are then run on a coagulation analyzer (STA-R Evolution, Stago Diagnostica). In general, the analyzer performs the following steps: Factor XII is activated by addition of ellagic acid (Pacific Hemostasis), and then time to clot is measured after re-calcification of the sample. Inhibition of FXI will cause aPTT clot time to be prolonged. The data is expressed as percent increase over vehicle control clot time and the concentration that causes a 50% (1.5×) percent increase of clot time are reported.

The target of experiment [3] is human Factor XIa (Homo sapiens (Human), UniProt P03951). Put plainly: Factor XIa Assay. Type of experiment: biochemical. Particulars: for IC50: human Factor XIa 0.04 nM, 30 min pre-incubation at 25° C., substrate GPR-AFC, read-out: FXIa IC50. The gist of the method:
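IC50 values were obtained from four-parameter log(inhibitor)-response fits of % inhibition, then converted to Ki using Cheng-Prusoff. GPR-AFC hydrolysis was read at 400/505 nm after 60 min at 25 °C.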

Human plasma kallikrein, sequence (P03952 391-638): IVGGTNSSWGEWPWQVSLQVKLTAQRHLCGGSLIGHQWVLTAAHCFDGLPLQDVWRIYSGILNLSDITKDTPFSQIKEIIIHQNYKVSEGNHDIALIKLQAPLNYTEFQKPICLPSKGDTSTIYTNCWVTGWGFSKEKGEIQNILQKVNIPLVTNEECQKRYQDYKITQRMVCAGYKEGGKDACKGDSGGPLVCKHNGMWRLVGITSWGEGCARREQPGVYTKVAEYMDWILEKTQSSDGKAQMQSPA
Human plasma kallikrein, sequence (P03952 20-390 partner): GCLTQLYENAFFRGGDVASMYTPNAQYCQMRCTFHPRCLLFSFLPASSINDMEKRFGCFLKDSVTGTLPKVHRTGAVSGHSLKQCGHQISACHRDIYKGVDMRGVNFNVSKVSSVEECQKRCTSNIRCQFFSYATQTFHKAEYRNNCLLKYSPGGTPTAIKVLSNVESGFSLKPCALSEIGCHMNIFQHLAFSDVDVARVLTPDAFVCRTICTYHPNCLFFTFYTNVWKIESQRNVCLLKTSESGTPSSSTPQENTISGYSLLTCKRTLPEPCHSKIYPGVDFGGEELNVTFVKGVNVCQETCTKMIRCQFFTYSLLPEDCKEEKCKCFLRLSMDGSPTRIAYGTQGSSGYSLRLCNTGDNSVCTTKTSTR
human Factor XIa, sequence (P03951 388-625): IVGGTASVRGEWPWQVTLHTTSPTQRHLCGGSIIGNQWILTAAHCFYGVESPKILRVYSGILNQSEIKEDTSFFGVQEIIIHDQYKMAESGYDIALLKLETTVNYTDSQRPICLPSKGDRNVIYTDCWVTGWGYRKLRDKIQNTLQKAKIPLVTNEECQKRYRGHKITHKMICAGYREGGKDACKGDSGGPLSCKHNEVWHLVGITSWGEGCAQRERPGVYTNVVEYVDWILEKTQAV
human Factor XIa, sequence (P03951 19-387 partner): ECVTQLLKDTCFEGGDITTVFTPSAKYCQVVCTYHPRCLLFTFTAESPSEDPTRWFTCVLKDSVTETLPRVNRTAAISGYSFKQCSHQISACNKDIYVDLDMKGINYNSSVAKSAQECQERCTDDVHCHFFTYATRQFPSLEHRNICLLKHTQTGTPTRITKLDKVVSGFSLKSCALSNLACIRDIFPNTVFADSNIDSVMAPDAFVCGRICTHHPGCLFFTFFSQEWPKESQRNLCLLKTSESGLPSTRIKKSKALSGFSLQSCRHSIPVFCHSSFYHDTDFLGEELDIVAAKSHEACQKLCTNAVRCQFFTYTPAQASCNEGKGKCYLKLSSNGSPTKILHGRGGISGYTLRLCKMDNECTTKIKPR

Consider `O=C(O)c1ccc(NC(=O)C(CC2CC(F)C2)c2ccc(-c3c(OC(F)F)ccc(Cl)c3F)c[n+]2[O-])cc1` (single isomer, unassigned) [Example 102, 2-(1-((4-carboxyphenyl)amino)-3-(3-fluorocyclobutyl)-1-oxopropan-2-yl)-5-(3-chloro-6-(difluoromethoxy)-2-fluorophenyl)pyridine 1-oxide], for which the IC50 in experiment [1] is 0.0318 µM. Also, the “aPTT (1.5x)” value in experiment [2] is 1 µM.
On to `COC(=O)c1ccc(NC(=O)C(CC2CC2)c2ccc(-c3c(C(F)F)ccc(Cl)c3F)c[n+]2[O-])cc1` (single isomer, unassigned) [Example 114, 5-(3-chloro-6-(difluoromethyl)-2-fluorophenyl)-2-(3-cyclopropyl-1-((4-(methoxycarbonyl)phenyl)amino)-1-oxopropan-2-yl)pyridine 1-oxide], for which the “FXIa % Inh. @ 1000 nM” value in experiment [3] (@ 1000 nM compound) came out at 45%. Also, the IC50 came out at 1 µM in experiment [3] and 0.201 µM in experiment [1].
With `O=C(O)c1ccc(NC(=O)C(CC2CC2C(F)F)c2ccc(-c3c(C(F)F)ccc(Cl)c3F)c[n+]2[O-])cc1` (single isomer, unassigned) [Example 90, 2-(1-((4-carboxyphenyl)amino)-3-(2-(difluoromethyl)cyclopropyl)-1-oxopropan-2-yl)-5-(3-chloro-6-(difluoromethyl)-2-fluorophenyl)pyridine 1-oxide], the IC50 in experiment [3] came to 0.0011 µM; in experiment [1], 0.0053 µM.
As for `CC1CC1C[C@@H](C(=O)Nc1ccc(C(=O)O)cc1)c1ccc(-c2c(C(F)(F)F)ccc(Cl)c2F)c[n+]1[O-]` (single isomer, unassigned) [Example 65], the IC50 in experiment [1] came to 0.051 µM. The “aPTT (1.5x)” value in experiment [2] was determined as 1.86 µM.
Consider `O=C(O)c1ccc(NC(=O)C(CC23CC(C2)C3)c2ccc(-c3c(OC(F)F)ccc(Cl)c3F)c[n+]2[O-])cc1` (single isomer, unassigned) [Example 52], for which the IC50 in experiment [1] turned out to be 0.014 µM. The “aPTT (1.5x)” value in experiment [2] stood at 1.17 µM.
Regarding `C[C@]1(O)CC[C@@H](CC(C(=O)Nc2ccc(C(=O)O)cc2)c2ccc(-c3c(OC(F)F)ccc(Cl)c3F)c[n+]2[O-])CC1` (single isomer, unassigned) [Example 40, 2-(1-((4-carboxyphenyl)amino)-3-((1s,4s)-4-hydroxy-4-methylcyclohexyl)-1-oxopropan-2-yl)-5-(3-chloro-6-(difluoromethoxy)-2-fluorophenyl)pyridine 1-oxide], the figures for the IC50 in experiment [3] and in experiment [1] were 0.0032 µM and 0.035 µM, respectively.
`O=C(O)c1ccc(NC(=O)C(CC2CC2C(F)(F)F)c2ccc(-c3c(C(F)F)ccc(Cl)c3F)c[n+]2[O-])cc1` (single isomer, unassigned) [Example 88, 2-(1-((4-carboxyphenyl)amino)-1-oxo-3-(2-(trifluoromethyl)cyclo-propyl)propan-2-yl)-5-(3-chloro-6-(difluoromethyl)-2-fluorophenyl)pyridine 1-oxide]: the half-inhibitory concentration (IC50) in experiment [1] was 0.0036 µM. For the same molecule, the “aPTT (1.5x)” value in experiment [2] was found to be 1.43 µM.
With `COc1cc(C(CC2CC2)C(=O)Nc2ccc(C(=O)O)cc2)[n+]([O-])cc1-c1c(OC(F)F)ccc(Cl)c1F` (single isomer, unassigned) [Example 70, 2-(1-((4-carboxyphenyl)amino)-3-cyclopropyl-1-oxopropan-2-yl)-5-(3-chloro-6-(difluoromethoxy)-2-fluorophenyl)-4-methoxypyridine 1-oxide], in experiment [1], the IC50 worked out at 0.0033 µM. Also, in experiment [2], the “aPTT (1.5x)” value was 0.82 µM.
Take `Cc1cc(NC(=O)C(CC2CC2)c2ccc(-c3c(C(F)F)ccc(Cl)c3F)c[n+]2[O-])ccc1C(=O)O` (single isomer, unassigned) [Example 122, 2-(1-((4-carboxy-3-methylphenyl)amino)-3-cyclopropyl-1-oxopropan-2-yl)-5-(3-chloro-6-(difluoromethyl)-2-fluorophenyl)pyridine 1-oxide]: the IC50 in experiment [3] was 0.0099 µM; in experiment [1] it was 0.0698 µM.
As to `O=C(O)c1ccc(NC(=O)C(CC2CC2(F)F)c2ccc(-c3c(C(F)F)ccc(Cl)c3F)c[n+]2[O-])cc1` (single isomer, unassigned) [Example 77, 2-(1-((4-carboxyphenyl)amino)-3-(2,2-difluorocyclopropyl)-1-oxopropan-2-yl)-5-(3-chloro-6-(difluoromethyl)-2-fluorophenyl)pyridine 1-oxide], the IC50 in experiment [1] amounted to 0.0376 µM.
`O=C(O)c1ccc(NC(=O)C(CC2CC2C(F)(F)F)c2ccc(-c3c(C(F)F)ccc(Cl)c3F)c[n+]2[O-])cc1` (single isomer, unassigned) [Example 87, 2-(1-((4-carboxyphenyl)amino)-1-oxo-3-(2-(trifluoromethyl)cyclopropyl)propan-2-yl)-5-(3-chloro-6-(difluoromethyl)-2-fluorophenyl)pyridine 1-oxide]: the IC50 in experiment [1] was 0.0027 µM. For the same molecule, in experiment [2], the “aPTT (1.5x)” value stood at 0.92 µM.
For `O=C1CCC(CC(C(=O)Nc2ccc(C(=O)O)cc2)c2ccc(-c3c(OC(F)F)ccc(Cl)c3F)c[n+]2[O-])CC1` (single isomer, unassigned) [Example 33], in experiment [1], the IC50 came to 0.081 µM.
Consider `O=C(O)c1ccc(NC(=O)C(CC2CC(F)(F)C2)c2ccc(-c3c(OC(F)F)ccc(Cl)c3F)c[n+]2[O-])cc1` (racemic) [Example 50, (S)- and (R)-2-(1-((4-carboxyphenyl)amino)-3-(3,3-difluorocyclobutyl)-1-oxopropan-2-yl)-5-(3-chloro-6-(difluoromethoxy)-2-fluorophenyl)pyridine 1-oxide], for which the IC50 in experiment [1] was 0.047 µM. Besides, the “aPTT (1.5x)” value in experiment [2] came out at 1.33 µM.
Consider `O=C(O)c1ccc(NC(=O)C(C[C@H]2CC[C@H](O)CC2)c2ccc(-c3c(OC(F)F)ccc(Cl)c3F)c[n+]2[O-])cc1` (single isomer, unassigned) [Example 35], for which the IC50 in experiment [1] was determined as 0.012 µM. Also, the “aPTT (1.5x)” value in experiment [2] is 0.39 µM.
The like results for `CC1C(C)C1CC(C(=O)Nc1ccc(C(=O)O)cc1)c1ccc(-c2c(OC(F)F)ccc(Cl)c2F)c[n+]1[O-]` (single isomer, unassigned) [Example 98, 2-(1-((4-carboxyphenyl)amino)-3-(2,3-dimethylcyclopropyl)-1-oxopropan-2-yl)-5-(3-chloro-6-(difluoromethoxy)-2-fluorophenyl)pyridine 1-oxide] were, in that order, 0.0113 µM and 0.72 µM.
The like results for `O=C(O)c1ccc(NC(=O)C(CC2CCC(F)(F)CC2)c2ccc(-c3c(OC(F)F)ccc(Cl)c3F)c[n+]2[O-])cc1` (single isomer, unassigned) [Example 39] were, in that order, 0.025 µM and 1.30 µM.
As for `CC1CC(CC(C(=O)Nc2ccc(C(=O)O)cc2)c2ccc(-c3c(C(F)(F)F)ccc(Cl)c3F)c[n+]2[O-])C1` (single isomer, unassigned) [Example 75, 2-(1-((4-carboxyphenyl)amino)-3-(3-methylcyclobutyl)-1-oxopropan-2-yl)-5-(3-chloro-2-fluoro-6-(trifluoromethyl)phenyl) pyridine 1-oxide], the IC50 in experiment [3] was determined as 0.0033 µM; in experiment [1] it was 0.0778 µM.
Turning to `CC1C(C)C1CC(C(=O)Nc1ccc(C(=O)O)cc1)c1ccc(-c2c(OC(F)F)ccc(Cl)c2F)c[n+]1[O-]` (single isomer, unassigned) [Example 99, 2-(1-((4-carboxyphenyl)amino)-3-(2,3-dimethylcyclopropyl)-1-oxopropan-2-yl)-5-(3-chloro-6-(difluoromethoxy)-2-fluorophenyl)pyridine 1-oxide], the IC50 in experiment [1] was determined as 0.092 µM. The “aPTT (1.5x)” value in experiment [2] stood at 2.78 µM.
For `O=C(O)c1ccc(NC(=O)C(CC2CC2C(F)F)c2ccc(-c3c(C(F)F)ccc(Cl)c3F)c[n+]2[O-])cc1` (single isomer, unassigned) [Example 89, 2-(1-((4-carboxyphenyl)amino)-3-(2-(difluoromethyl)cyclopropyl)-1-oxopropan-2-yl)-5-(3-chloro-6-(difluoromethyl)-2-fluorophenyl)pyridine-1-oxide], the IC50 in experiment [3] stood at 0.0006 µM; in experiment [1] it was 0.0071 µM.

Broadly, the IC50 is the concentration that inhibits the measured activity by half.

The values are drawn from US10143681B2, “Factor XIa inhibitors” (MERCK SHARP & DOHME CORP., priority 2016, dated 2018).
